Data on one compound can be found in patent US6001815A, “Depsipeptides containing N-substituted glycine residue” (Nisshin Flour Milling Co., Ltd., priority 1997, dated 1999).

Where a SMILES comes first, the peptide text is derived from it. [ ]: non-standard residue; d: D form. The star is where a group is joined. Fmoc = O=C(OCC1c2ccccc2-c2ccccc21)*; X1 = CCCCCCCCCCCC(CC(=O)O)O*; NBuGly = CCCCNCC(=O)O

The test system of the test is apolipoprotein E production in Hep G2 cells. The experiment in a line: Productivity of apolipoprotein E in Hep G2 cells, determined by enzyme immunoassay. It counts as cell-based, human. Particulars: Hep G2 culture supernatant, methanol control defined as 100. Here is the method:
It will be shown below that the depsipeptides of the invention may influence upon the productivity of apolipoprotein E in Hep G2 cells, together with the test procedure as used.
First, Hep G2 cells of 1×10^5 cells were suspended in Dulbecco's modified Eagle medium (manufactured by Nissui Seiyaku Co., Ltd.; hereinafter referred to as "D-MEM medium") containing 10% fetal bovine serum and 1 ml each of the suspension was poured into a 24-well tissue culture plate. The cells were cultivated at 37° C. under atmosphere of a mixed gas composed of 5% carbon dioxide and 95% air. […]
It was again washed three times with 300 μl of PBS, 50 μl of the above sample solution (the medium for Hep G2 cells) was added and the mixture was allowed to stand at room temperature for 2 hours. […] The reaction was quenched by the addition of 100 μl of 2N sulfuric acid and absorbance was measured at 490 nm using absorbance at 650 nm as a control. An amount of apolipoprotein E in the present depsipeptide was determined upon the calibration curve drawn up when a commercially available apolipoprotein E (Chemicon Co., Ltd., U.S.A.) was used as a standard.
In the Test Example, the same procedure as described above was carried out except that methanol alone was added instead of the methanolic solution of the depsipeptide of this invention and an apolipoprotein E amount was measured as a control. […]

Regarding `CCCCCCCCCCCC(CC(=O)O)OC(=O)CN(CCCC)C(=O)CN(CCCC)C(=O)[C@H](CC(=O)O)NC(=O)[C@@H](NC(=O)OCC1c2ccccc2-c2ccccc21)C(C)C` (some centres unmarked) [Compound 2] (Fmoc-VD[NBuGly][NBuGly]-X1), the “Relative amount of apolipoprotein E (%)” value runs as follows: (Conc. 1 μM) 256%; (Conc. 5 μM) 389%.
